Legend:
D816V Kit = D816V Kit (Homo sapiens (Human), UniProt P10721, D816V); assay: Kit D816V assay at Km (Caliper electrophoretic mobility shift); type: biochemical; conditions: for IC50: D816V Kit 0.5 nM, 15 uM ATP (Km), 1 uM Srctide, 25 C, 90 minutes, read-out: INH-KITD816V ENZ-KM IC50 (nM) (Num); for times more potent against the D816V mutant than against the wild-type Kit: D816V Kit versus wild-type Kit, enzyme assays at Km
Procedure: (§1) In order to assess the activity of chemical compounds against the relevant kinase of interest, the Caliper LifeSciences electrophoretic mobility shift technology platform is used. Fluorescently labeled substrate peptide is incubated in the presence of kinase and ATP so that a […] proportion of the peptide is phosphorylated. At the end of the reaction, the mix of phosphorylated (product) and non-phosphorylated (substrate) peptides are passed through the microfluidic system of the Caliper EZ Reader 2, under an applied potential difference. The presence of the phosphate group on the product peptide provides a difference in mass and charge between those of the substrate peptide, resulting in a separation of the substrate and product pools in the sample. As the pools pass a LEDS within the instrument, these pools are detected and resolved as separate peaks. The ratio between these peaks therefore reflects the activity of the chemical matter at that concentration in that well, under those conditions.
(§2) The reaction was stopped by the addition of 70 ul of Stop buffer (100 mM HEPES pH 7.5, 0.015% Brij 35, 35 mM EDTA and 0.2% of Coating Reagent 3 (Caliper Lifesciences)). The plate was then read on a Caliper EZReader 2 (protocol settings: −1.9 psi, upstream voltage −700, downstream voltage −3000, post sample sip 35 s).

wild type Kit = wild type Kit (Homo sapiens (Human), UniProt P10721); assay: Kit wild type assay at Km (Caliper electrophoretic mobility shift); type: biochemical; conditions: wild type Kit 2 nM, 400 uM ATP (Km), 1 uM Srctide, 25 C, 90 minutes; read-out: INH-KITWT ENZ-KM IC50 (nM) (Num)
Procedure: as §1, §2

Chain of wild type Kit (P10721 26-976): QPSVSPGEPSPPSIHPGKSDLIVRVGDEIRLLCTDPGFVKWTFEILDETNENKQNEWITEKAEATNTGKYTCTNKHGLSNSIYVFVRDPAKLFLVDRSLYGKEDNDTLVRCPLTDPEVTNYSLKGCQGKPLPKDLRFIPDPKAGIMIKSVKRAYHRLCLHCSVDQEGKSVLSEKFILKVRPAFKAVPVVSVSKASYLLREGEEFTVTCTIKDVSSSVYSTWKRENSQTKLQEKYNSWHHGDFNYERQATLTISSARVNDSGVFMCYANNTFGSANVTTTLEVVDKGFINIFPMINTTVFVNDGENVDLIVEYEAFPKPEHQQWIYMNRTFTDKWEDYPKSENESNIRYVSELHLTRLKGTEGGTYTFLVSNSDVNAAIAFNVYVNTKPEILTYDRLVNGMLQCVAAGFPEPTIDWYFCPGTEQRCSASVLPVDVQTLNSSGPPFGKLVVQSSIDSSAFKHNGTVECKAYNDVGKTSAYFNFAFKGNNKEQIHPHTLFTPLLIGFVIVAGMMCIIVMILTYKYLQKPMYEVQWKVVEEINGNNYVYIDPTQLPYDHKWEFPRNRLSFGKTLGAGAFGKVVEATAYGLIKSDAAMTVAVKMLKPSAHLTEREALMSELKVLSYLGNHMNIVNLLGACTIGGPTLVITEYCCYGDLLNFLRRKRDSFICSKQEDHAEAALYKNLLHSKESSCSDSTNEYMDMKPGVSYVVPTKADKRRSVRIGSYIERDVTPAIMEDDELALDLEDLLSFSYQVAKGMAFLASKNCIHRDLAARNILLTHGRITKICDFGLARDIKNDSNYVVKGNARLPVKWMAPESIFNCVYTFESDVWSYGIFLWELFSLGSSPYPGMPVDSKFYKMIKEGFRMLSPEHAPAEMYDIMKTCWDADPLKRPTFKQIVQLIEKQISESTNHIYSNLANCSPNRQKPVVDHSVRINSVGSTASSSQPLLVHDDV
Chain of D816V Kit (P10721 26-976 D816V): as the sequence (P10721 26-976) above, with D791V counted along it

| IC50 (D816V Kit) [nM] | IC50 (wild type Kit) [nM] | times more potent against the D816V mutant than against the wild-type Kit (D816V Kit) | Compound |
| --- | --- | --- | --- |
| 1.01 to 10 | 11 to 100 | – | COc1cc2ncnc(N3CCN(c4ncc(Sc5ccc(F)cc5)cn4)CC3)c2cc1OCC1CCN(C)CC1 [Compound 140] |
| 10 to 100 | > 1000 | – | COc1ccc2c(N3CCN(c4ncc(OCc5ccccc5)cn4)CC3)ncnc2c1 [Compound 8] |
| 10 to 100 | > 1000 | – | COc1cc2ncnc(N3CCN(c4ncc(O[C@@H](C)c5ccccc5)cn4)CC3)c2cc1OC [Compound 64] |
| 1.01 to 10 | 100 to 1000 | – | CN1CCC(COc2ccc3ncnc(N4CCN(c5ncc(Cc6ccccc6)c(=O)[nH]5)CC4)c3c2)CC1 [Compound 100] |
| 10 to 100 | > 1000 | – | COc1cc2ncnc(N3CCN(c4ncc(NC(C)c5ccccc5)cn4)CC3)c2cc1OC (centres unmarked) [Compound 56] |
| < 1 | 11 to 100 | – | COc1cc2ncnc(N3CCN(c4ncc(Cc5ccccc5)cn4)CC3)c2cc1OC[C@@H]1CCCN(C)C1 [Compound 113] |
| 10 to 100 | 100 to 1000 | – | COc1cc2ncnc(N3CCN(c4ncc(N5CCCc6ccccc65)cn4)CC3)c2cc1OC [Compound 74] |
| 1.01 to 10 | 11 to 100 | – | COc1cc2ncnc(N3CCN(c4ncc(Cc5ccccc5)cn4)CC3)c2cc1OC[C@@H]1CNCCO1 [Compound 106] |
| 10 to 100 | > 1000 | at least 100 times | COc1cc2ncnc(N3CCN(c4ncc(Cc5ccccc5)cn4)CC3)c2cc1C(N)=O [Compound 20] |
| < 1 | < 10 | – | CCOc1cc2ncnc(N3CCN(c4ncc(Cc5ccccc5)cn4)CC3)c2cc1OCC1CCN(C)CC1 [Compound 122] |
| 1.01 to 10 | 11 to 100 | – | COc1ccc(Cc2cnc(N3CCN(c4ncnc5cc(OC)c(OC)cc45)CC3)nc2)cc1 [Compound 58] |
| < 1 | 11 to 100 | – | COc1cc2ncnc(N3CCN(c4ncc(Cc5ccccc5)cn4)CC3)c2cc1OCC1CCNC1 (centres unmarked) [Compound 89] |
| 1.01 to 10 | 11 to 100 | – | COc1cc2ncnc(N3CCN(c4ncc(Cc5ccccc5)cn4)CC3)c2cc1OC1CCN(CCO)C1 (centres unmarked) [Compound 118] |
| 1.01 to 10 | 100 to 1000 | – | COc1cc2ncnc(N3CCN(c4ncc(Cc5cccc(C(N)=O)c5)cn4)CC3)c2cc1OC [Compound 75] |
| 10 to 100 | 100 to 1000 | – | COc1cc2ncnc(N3CCN(c4ncc(Cc5cccc(C#N)c5)cn4)CC3)c2cc1OC [Compound 46] |
| 10 to 100 | 100 to 1000 | – | COc1cc2ncnc(N3CCN(c4ncc(N5CCc6ccccc65)cn4)CC3)c2cc1OC [Compound 49] |
| 1.01 to 10 | 100 to 1000 | – | COc1cc2ncnc(N3CCN(c4ncc(Cc5cccc(F)c5)cn4)CC3)c2cc1OC [Compound 39] |
| 1.01 to 10 | 11 to 100 | – | COc1cc2ncnc(N3CCN(c4ncc(N(C)Cc5ccccc5)cn4)CC3)c2cc1OC [Compound 52] |
| 10 to 100 | 100 to 1000 | – | COc1cc2ncnc(N3CCN(c4ncc(Nc5ccccn5)cn4)CC3)c2cc1OC [Compound 15] |
| 1.01 to 10 | 11 to 100 | – | COc1cc2c(N3CCN(c4ncc(Cc5ccccc5)cn4)CC3)ncnc2cc1OCC1(C)COC1 [Compound 93] |
| 10 to 100 | 100 to 1000 | – | COc1cc2ncnc(N3CCN(c4ncc(NCc5ccccc5C)cn4)CC3)c2cc1OC [Compound 54] |
| < 1 | 11 to 100 | – | COc1cc2ncnc(N3CCN(c4ncc(Cc5ccccc5)cn4)CC3)c2cc1OCC1CCCN(C)C1 (centres unmarked) [Compound 114] |

| IC50 (D816V Kit) [nM] | IC50 (wild type Kit) [nM] | times more potent against the D816V mutant than against the wild-type Kit (D816V Kit) | Compound |
| --- | --- | --- | --- |
| > 100 | > 1000 | – | COc1cc2ncnc(N3CCN(c4ncc(Nc5ccncc5)cn4)CC3)c2cc1OC [Compound 17] |
| 1.01 to 10 | 11 to 100 | – | COc1cc2ncnc(N3CCN(c4ncc(Cc5ccc(F)cc5)cn4)CC3)c2cc1OC [Compound 38, 4-(4-(5-(4-fluorobenzyl)pyrimidin-2-yl)piperazin-1-yl)-6,7-dimethoxyquinazoline] |
| 1.01 to 10 | 11 to 100 | – | COc1cc2ncnc(N3CCN(c4ncc(Cc5ccccc5)c(=O)[nH]4)CC3)c2cc1OC[C@@H]1CCCN(C)C1 [Compound 128] |
| > 100 | > 1000 | less than 5 times | c1ccc(Cc2cnc(N3CCN(c4ncnc5c4CN(CC4CCNCC4)C5)CC3)nc2)cc1 [Compound 50] |
| > 100 | > 1000 | – | COc1cc2ncnc(N3CCN(c4nccc(Cc5ccccc5)n4)CC3)c2cc1OC [Compound 12] |
| < 1 | 11 to 100 | – | COc1cc2ncnc(N3CCN(c4ncc(Cc5ccccc5)cn4)CC3)c2cc1OCC1CN(C)C1 [Compound 90] |
| > 100 | > 1000 | less than 5 times | COc1cc2ncnc(N3CCN(c4ncc(Br)c(OC)n4)CC3)c2cc1OC [Compound 41] |
| > 100 | > 1000 | – | COc1cc2ncnc(N3CCN(c4ncc(OCc5cc(Cl)cc(Cl)c5)cn4)CC3)c2cc1OC [Compound 103] |
| 1.01 to 10 | 100 to 1000 | – | COc1cc2ncnc(N3CCN(c4ncc(Nc5ccc(C)cc5)cn4)CC3)c2cc1OC [Compound 31] |
| 1.01 to 10 | 100 to 1000 | – | COc1cc2ncnc(N3CCN(c4ncc(OCc5ccccc5)cn4)CC3)c2cc1OC [Compound 37, 4-(4-(5-(benzyloxy)pyrimidin-2-yl)piperazin-1-yl)-6,7-dimethoxyquinazoline] |
| < 1 | < 10 | – | COc1cc2ncnc(N3CCN(c4ncc(Cc5ccccc5)c(N)n4)CC3)c2cc1OC [Compound 29] |
| < 1 | 11 to 100 | – | COc1cc2ncnc(N3CCN(c4ncc(Cc5ccccc5)cn4)CC3)c2cc1OC[C@H]1CNCCO1 [Compound 104] |
| 1.01 to 10 | 11 to 100 | – | CN1CCC(COc2ccc3ncnc(N4CCN(c5ncc(Cc6ccccc6)c(N)n5)CC4)c3c2)CC1 [Compound 95] |
| 1.01 to 10 | 11 to 100 | – | COc1cc2ncnc(N3CCN(c4ncc(Oc5ccc(F)cc5)cn4)CC3)c2cc1OCC1CCN(C)CC1 [Compound 133] |
| < 1 | 11 to 100 | – | COc1cc2ncnc(N3CCN(c4ncc(Cc5ccccc5)cn4)CC3)c2cc1OCC1CCN(C)C1 (centres unmarked) [Compound 96] |
| 10 to 100 | 100 to 1000 | – | COc1cc2ncnc(N3CCN(c4ncc(NCc5ccc(C)cc5)cn4)CC3)c2cc1OC [Compound 53] |
| < 1 | 11 to 100 | – | COc1cc2ncnc(N3CCN(c4ncc(Cc5ccccc5)cn4)CC3)c2cc1OCCN1CCCC1=O [Compound 110] |
| > 100 | > 1000 | – | c1ccc(Cc2cnc(N3CCN(c4ncnc5c4CNC5)CC3)nc2)cc1 [Compound 2] |
| > 100 | > 1000 | – | COc1cc2ncnc(N3CCN(c4ncc(OCC5CC5)cn4)CC3)c2cc1OC [Compound 6] |
| > 100 | – | – | COc1cc2ncnc(N3CCN(c4ncc(NCc5ccc6c(c5)OCO6)cn4)CC3)c2cc1OC [Compound 83] |
| 10 to 100 | – | – | COc1cc2c(N3CCN(c4ncc(Cc5ccccc5)cn4)CC3)ncnc2cc1OC(F)F [Compound 72] |

| Compound | IC50 (D816V Kit) [nM] | IC50 (wild type Kit) [nM] | times more potent against the D816V mutant than against the wild-type Kit (D816V Kit) |
| --- | --- | --- | --- |
| COc1cc2ncnc(N3C[C@H]4CC[C@@H](C3)N4c3ncc(Cc4ccccc4)cn3)c2cc1OC [Compound 48, 4-((1R,5S)-8-(5-Benzylpyrimidin-2-yl)-3,8-diazabicyclo[3.2.1]octan-3-yl)-6,7-dimethoxyquinazoline] | 1.01 to 10 | 11 to 100 | – |
